Test results taken from patent publication US20240279283A1, “CYCLIC PEPTIDE ANTIBIOTICS” (priority 2021, published 2024).
Bridge positions count the residues as written; N and C are the ends. Square brackets hold non-standard residues; d marks the D form. Peptide text beside a SMILES is read from it. 1Nal = N[C@@H](Cc1cccc2ccccc12)C(=O)O; His(π-Me) = Cn1cncc1C[C@H](N)C(=O)O; NMeF = CN[C@@H](Cc1ccccc1)C(=O)O; Abu = CC[C@H](N)C(=O)O; Aib = CC(C)(N)C(=O)O

How the values were obtained:
E. coli BW25113 = assay: Minimum Inhibitory Concentration (MIC) determination, E. coli BW25113; format: cell-based; set-up: unit not given here; settings: LB broth, 5×10^5 CFU/ml, 37° C., 18 hours, scored by eye
Protocol: (§1) MICs were determined by performing two-fold serial dilutions of peptides in LB broth to a final volume of 0.1 ml in round-bottom 96-well assay plates (Corning Life Sciences No 3788). Peptides were initially resuspended in 100% DMSO to 10 mM and subsequently diluted in LB medium to the appropriate concentration. Each well was inoculated with 5×10^5 CFU/ml of the screening stain and incubated at 37° C. without agitation for 18 hours. Plates were scored by eye, and the lowest compound concentration preventing visible growth was determined to be the MIC.

E. coli 25922 IMP = assay: Minimum Inhibitory Concentration (MIC) determination, E. coli 25922 IMP; format: cell-based; settings: LB broth, 5×10^5 CFU/ml, 37° C., 18 hours, scored by eye
Protocol: as §1

| SMILES | MIC E. coli BW25113 WUXI::MIC (E. coli BW25113) | MIC E. coli 25922 IMP WUXI::MIC (E. coli 25922 IMP) |
| --- | --- | --- |
| CC[C@@H]1NC(=O)[C@H](Cc2ccccc2)NC(=O)CSC[C@@H](C(=O)NCC(N)=O)NC(=O)[C@H](Cc2cncn2C)NC(=O)[C@H](CCCNC(=N)N)NC(=O)[C@H](Cc2cnc[nH]2)NC(=O)[C@H](Cc2ccc(O)cc2)N(C)C(=O)[C@H](CCCNC(=N)N)NC(=O)[C@H](CO)NC(=O)CN(C)C(=O)[C@H](Cc2cnc[nH]2)NC(=O)[C@H](Cc2c[nH]c3ccccc23)NC1=O (racemic) [Compound 13] | 4 | 0.00 |
| CC[C@@H]1NC(=O)[C@H](Cc2ccccc2)NC(=O)CSC[C@@H](C(=O)NCC(N)=O)NC(=O)[C@H](Cc2cncn2C)NC(=O)[C@H](CCCNC(=N)N)NC(=O)[C@H](Cc2cnc[nH]2)NC(=O)[C@H](Cc2ccccc2)N(C)C(=O)[C@H](CCCNC(=N)N)NC(=O)[C@H](CO)NC(=O)CNC(=O)[C@H](Cc2c[nH]cn2)NC(=O)[C@H](Cc2c[nH]c3ccccc23)NC1=O [Compound 7, (3R,6S,9S,12S,15S,18S,21S,27S,30S, 33S,36S)-N-(2-amino-2-oxo-ethyl)-15,36-dibenzyl-33-ethyl-9,18-bis(3-guanidinopropyl)-21-(hydroxymethyl)-12,27-bis(1H-imidazol-4-ylmethyl)-30-(1H-indol-3-ylmethyl)-16-methyl-6-[(3-methylimidazol-4-yl)methyl]-5,8,11,14,17,20,23,26,29,32,35,38-dodecaoxo-1-thia-4,7,10,13,16,19,22,25,28,31,34,37-dodecazacyclononatriacontane-3-carboxamide] ({CH2CO}-F[Abu]WHGSR[NMeF]HR[His(π-Me)]CG-NH2; thioether N-12) | 2 | 0.0005 |
| CC(C)[C@@H]1NC(=O)[C@H](Cc2ccccc2)NC(=O)CSC[C@@H](C(=O)NCC(N)=O)NC(=O)[C@H](Cc2cncn2C)NC(=O)[C@H](CCCNC(=N)N)NC(=O)[C@H](Cc2cnc[nH]2)NC(=O)[C@H](Cc2ccccc2)N(C)C(=O)[C@H](CCCNC(=N)N)NC(=O)[C@H](CO)NC(=O)CNC(=O)[C@H](Cc2cnc[nH]2)NC(=O)[C@H](Cc2c[nH]c3ccccc23)NC1=O (racemic) [Compound 9, rac-(3R,6S,9S,12S,15S,18S,21S,27S,30S, 33S,36S)-N-(2-amino-2-oxo-ethyl)-15,36-dibenzyl-9,18-bis(3-guanidinopropyl)-21-(hydroxymethyl)-12,27-bis(1H-imidazol-5-ylmethyl)-30-(1H-indol-3-ylmethyl)-33-isopropyl-16-methyl-6-[(3-methylimidazol-4-yl)methyl]-5,8,11,14,17,20,23,26,29,32,35,38-dodecaoxo-1-thia-4,7,10,13,16,19,22,25,28,31,34,37-dodecazacyclononatriacontane-3-carboxamide] | 8 | 9.5367E−07 |
| CC[C@H](C)[C@@H]1NC(=O)C(C)(C)NC(=O)[C@H](Cc2cncn2C)NC(=O)[C@H](Cc2ccccc2)NC(=O)CSC[C@@H](C(=O)NCC(N)=O)NC(=O)[C@H](Cc2ccc(O)cc2)NC(=O)[C@H](Cc2c[nH]c3ccccc23)NC(=O)[C@H](Cc2ccc(O)cc2)NC(=O)[C@H](CCCNC(=N)N)NC(=O)[C@H](Cc2ccccc2)NC(=O)C(C)(C)NC(=O)[C@H](CCCNC(=N)N)NC(=O)[C@H](CCCCN)NC(=O)[C@H](CCCNC(=N)N)NC1=O [Compound 57] ({CH2CO}-F[His(π-Me)][Aib]IRKR[Aib]FRYWYCG-NH2; thioether N-14) | >32 | 2 |
| CC[C@@H]1NC(=O)[C@H](Cc2ccccc2)NC(=O)CSC[C@@H](C(=O)NCC(N)=O)NC(=O)[C@H](Cc2cncn2C)NC(=O)[C@H](CCCNC(=N)N)NC(=O)[C@H](Cc2cnc[nH]2)NC(=O)[C@H](Cc2ccc(O)cc2)N(C)C(=O)[C@H](CCCNC(=N)N)NC(=O)[C@H](CO)NC(=O)CNC(=O)[C@H](Cc2cnc[nH]2)NC(=O)[C@H](Cc2c[nH]c3ccccc23)NC1=O (racemic) [Compound 12] | 1 | 3.8137E−06 |
| CC[C@@H]1NC(=O)[C@H](Cc2ccccc2)NC(=O)CSC[C@@H](C(=O)NCC(N)=O)NC(=O)[C@H](Cc2cncn2C)NC(=O)[C@H](CCCNC(=N)N)NC(=O)[C@H](Cc2cnc[nH]2)NC(=O)[C@H](Cc2ccccc2)N(C)C(=O)[C@H](CCCNC(=N)N)NC(=O)[C@H](CO)NC(=O)CN(C)C(=O)[C@H](Cc2cnc[nH]2)NC(=O)[C@H](Cc2c[nH]c3ccccc23)NC1=O (racemic) [Compound 11, rac-(3R,6S,9S,12S,15S,18S,21S,27S,30S, 33S,36S)-N-(2-amino-2-oxo-ethyl)-15,36-dibenzyl-33-ethyl-9,18-bis(3-guanidinopropyl)-21-(hydroxymethyl)-12,27-bis(1H-imidazol-5-ylmethyl)-30-(1H-indol-3-ylmethyl)-16,25-dimethyl-6-[(3-methylimidazol-4-yl)methyl]-5,8,11,14,17,20,23,26,29,32,35,38-dodecaoxo-1-thia-4,7,10,13,16,19,22,25,28,31,34,37-dodecazacyclononatriacontane-3-carboxamide] | 8 | 1.9074E−06 |
| CC[C@@H]1NC(=O)[C@H](Cc2c[nH]cn2)NC(=O)[C@H](Cc2ccccc2)N(C)C(=O)[C@H](CC)NC(=O)[C@H](CO)NC(=O)CNC(=O)[C@H](Cc2c[nH]cn2)NC(=O)[C@H](Cc2cccc3ccccc23)NC(=O)[C@H](C(C)C)NC(=O)[C@H](Cc2ccccc2)NC(=O)CSC[C@@H](C(=O)NCC(N)=O)NC(=O)[C@H](Cc2cncn2C)NC1=O [Compound 8, (3R,6S,9S,12S,15S,18S,21S,27S,30S, 33S,36S)-N-(2-amino-2-oxo-ethyl)-15,36-dibenzyl-9,18-diethyl-21-(hydroxymethyl)-12,27-bis(1H-imidazol-4-ylmethyl)-33-isopropyl-16-methyl-6-[(3-methylimidazol-4-yl)methyl]-30-(1-naphthylmethyl)-5,8,11,14,17,20,23,26,29,32,35,38-dodecaoxo-1-thia-4,7,10,13,16,19,22,25,28,31,34,37-dodecazacyclononatriacontane-3-carboxamide] ({CH2CO}-FV[1Nal]HGS[Abu][NMeF]H[Abu][His(π-Me)]CG-NH2; thioether N-12) | >32 | 4 |
| CC[C@@H]1NC(=O)[C@H](Cc2ccccc2)NC(=O)CSC[C@@H](C(=O)NCC(N)=O)NC(=O)[C@H](Cc2cncn2C)NC(=O)[C@H](CC)NC(=O)[C@H](Cc2c[nH]cn2)NC(=O)[C@H](Cc2ccccc2)N(C)C(=O)[C@H](CCCNC(=N)N)NC(=O)[C@H](CO)NC(=O)CNC(=O)[C@H](Cc2c[nH]cn2)NC(=O)[C@H](Cc2c[nH]c3ccccc23)NC1=O [Compound 4, (3R,6S,9S,12S,15S,18S,21S,27S,30S, 33S,36S)-N-(2-amino-2-oxo-ethyl)-15,36-dibenzyl-9,33-diethyl-18-(3-guanidinopropyl)-21-(hydroxymethyl)-12,27-bis(1H-imidazol-4-ylmethyl)-30-(1H-indol-3-ylmethyl)-16-methyl-6-[(3-methylimidazol-4-yl)methyl]-5,8,11,14,17,20,23,26,29,32,35,38-dodecaoxo-1-thia-4,7,10,13,16,19,22,25,28,31,34,37-dodecazacyclononatriacontane-3-carboxamide] ({CH2CO}-F[Abu]WHGSR[NMeF]H[Abu][His(π-Me)]CG-NH2; thioether N-12) | >32 | 0.128 |
| CC[C@H](C)[C@@H]1NC(=O)C(C)(C)NC(=O)[C@H](Cc2cncn2C)NC(=O)[C@H](Cc2ccccc2)NC(=O)CSC[C@@H](C(=O)NCC(N)=O)NC(=O)[C@H](Cc2ccc(O)cc2)NC(=O)[C@H](Cc2c[nH]c3ccccc23)NC(=O)[C@H](Cc2ccc(O)cc2)NC(=O)[C@H](Cc2cncn2C)NC(=O)[C@H](Cc2ccccc2)NC(=O)C(C)(C)NC(=O)[C@H](CCCNC(=N)N)NC(=O)[C@H](CCCCN)NC(=O)[C@H](CCCNC(=N)N)NC1=O [Compound 56] ({CH2CO}-F[His(π-Me)][Aib]IRKR[Aib]F[His(π-Me)]YWYCG-NH2; thioether N-14) | >32 | 8 |
| CC[C@@H]1NC(=O)[C@H](Cc2ccccc2)NC(=O)CSC[C@@H](C(=O)NCC(N)=O)NC(=O)[C@H](Cc2cncn2C)NC(=O)[C@H](CC)NC(=O)[C@H](Cc2c[nH]cn2)NC(=O)[C@H](Cc2ccccc2)N(C)C(=O)[C@H](CCCNC(=N)N)NC(=O)[C@H](CO)NC(=O)CNC(=O)[C@H](Cc2c[nH]cn2)NC(=O)[C@H](Cc2cccc3ccccc23)NC1=O [Compound 5, (3R,6S,9S,12S,15S,18S,21S,27S,30S, 33S,36S)-N-(2-amino-2-oxo-ethyl)-15,36-dibenzyl-9,33-diethyl-18-(3-guanidinopropyl)-21-(hydroxymethyl)-12,27-bis(1H-imidazol-4-ylmethyl)-16-methyl-6-[(3-methylimidazol-4-yl)methyl]-30-(1-naphthylmethyl)-5,8,11,14,17,20,23,26,29,32,35,38-dodecaoxo-1-thia-4,7,10,13,16,19,22,25,28,31,34,37-dodecazacyclononatriacontane-3-carboxamide] ({CH2CO}-F[Abu][1Nal]HGSR[NMeF]H[Abu][His(π-Me)]CG-NH2; thioether N-12) | >32 | 0.016 |
